# Counter-ions that a name gives are not always drawn.
# Columns and labels:
# 5-HT transmission = experiment: Fenfluramine-induced hyperthermia in rats (reduction of 5-HT transmission in vivo); settings: four day chronic pretreatment, 10 mg/kg ip. twice daily, fenfluramine 7.5 mg/kg ip.
# Description: The activity of the compounds to reduce 5-HT transmission can be assessed in vivo by measuring their effect on the hyperthermia induced by an intraperitoneal injection of fenfluramine (see A. Sulpizio et al, Life Sciences 22 1439 (1978). As an illustration a four day chronic pretreatment of rats with 3-(3'-methoxyphenyl)-3-(3"-N,N dimethylaminopropyl) 4,4-dimethyl-2,6-dioxopiperidine hydrochloride at a dose level of 10 mg/kg ip. twice daily produced a 50 percent reduction in the hyperthermia induced by fenfluramine administered at a dose level of 7.5 mg/kg ip.
# tryptophan hydroxylase = experiment: Inhibition of the depolarisation induction of tryptophan hydroxylase in rat brainstem slices; type: cell-based; settings: 37° C., from concentration response curves, read-out: IC50, concentration causing 50 percent inhibition of the depolarisation induction of tryptophan hydroxylase
# Description: The activity of the compounds as inhibitors of the depolarisation induction of tryptophan hydroxylase can be assessed by determining the IC50 in rat brainstem slices as described by Margaret C. Boadle-Biber, Biochemical Pharmacology 27 1069 (1978). The IC50 values are derived from concentration response curves as the concentration causing 50 percent inhibition of the depolarisation induction at 37° C. As an illustration the IC50 of d,l 3-(3'-methoxyphenyl)-3-(3"-N,N-dimethylaminopropyl)-4,4-dimethyl-2,6-dioxopiperidine hydrochloride is 10 μM.
structure (smiles),measurement,setting,value
"COc1cccc(C2(CCCN(C)C)C(=O)NC(=O)CC2(C)C)c1 (racemic) [Example 1, 3-(3'-Methoxyphenyl-3-(3""-N,N-dimethylaminopropyl)-4,4-dimethyl-2,6-dioxopiperidine hydrochloride]",reduction in the hyperthermia induced by fenfluramine,5-HT transmission,50%
same,IC50,tryptophan hydroxylase,10 µM
